Measurements as given in the NIST ThermoML archive (doi:10.1016/j.jct.2015.03.021).

Assays:
[1] = 101.33 kPa, Liquid, Vibrating tube method
[2] = relative permittivity at various frequencies (dimensionless); settings: 100 kPa, Liquid, Frequency=1 MHz, Parallel plate capacitor
[3] = excess molar enthalpy (molar enthalpy of mixing); xn = mol fraction of the nth substance listed; settings: 100 kPa, Liquid, Calvet calorimetry

CCC(C)CO (stereo not drawn) [2-methyl-1-butanol]
Settings	mass density, [1] [kg/m3]	relative permittivity, [2]
298.15 K	814.98	15.52
308.15 K	807.63	14.07

CCC(C)CO (stereo not drawn) [2-methyl-1-butanol] + CCCCOCCCC
[3]
Settings	excess molar enthalpy [kcal/mol]
298.15 K, x2 = 0.0954	0.0664
298.15 K, x2 = 0.162	0.113
298.15 K, x2 = 0.2536	0.165
298.15 K, x2 = 0.3156	0.193
298.15 K, x2 = 0.4007	0.221
298.15 K, x2 = 0.4806	0.241
298.15 K, x2 = 0.5445	0.246
298.15 K, x2 = 0.6338	0.248
298.15 K, x2 = 0.7017	0.237
298.15 K, x2 = 0.7832	0.211
298.15 K, x2 = 0.8542	0.176
298.15 K, x2 = 0.9335	0.101
308.15 K, x2 = 0.0798	0.0595
308.15 K, x2 = 0.152	0.111
308.15 K, x2 = 0.2539	0.168
308.15 K, x2 = 0.3152	0.198
308.15 K, x2 = 0.4069	0.224
308.15 K, x2 = 0.4701	0.242
308.15 K, x2 = 0.5703	0.251
308.15 K, x2 = 0.6528	0.249
308.15 K, x2 = 0.7263	0.235
308.15 K, x2 = 0.8093	0.202
308.15 K, x2 = 0.897	0.147
308.15 K, x2 = 0.9553	0.07

CCC(C)(C)O [2-methylbutan-2-ol]
Settings	mass density, [1] [kg/m3]	relative permittivity, [2]
298.15 K	804.31	5.63
308.15 K	795.16	5.23

CCC(C)(C)O [2-methylbutan-2-ol] + CCCCOCCCC
excess molar enthalpy [kcal/mol], [3]
Settings	298.15 K	308.15 K
x2 = 0.0916	0.0557	–
x2 = 0.0919	–	0.065
x2 = 0.1591	0.098	–
x2 = 0.1603	–	0.108
x2 = 0.2403	0.141	0.155
x2 = 0.3201	0.18	–
x2 = 0.3244	–	0.188
x2 = 0.3985	0.21	–
x2 = 0.4034	–	0.217
x2 = 0.4755	0.234	–
x2 = 0.476	–	0.244
x2 = 0.5445	0.249	–
x2 = 0.5541	–	0.262
x2 = 0.6392	0.258	–
x2 = 0.6992	0.255	–
x2 = 0.702	–	0.272
x2 = 0.7733	0.237	–
x2 = 0.7747	–	0.258
x2 = 0.8569	0.199	–
x2 = 0.8671	–	0.204
x2 = 0.9322	–	0.129
x2 = 0.933	0.123	–

CC(C)C(C)O (stereo not drawn) [3-methyl-2-butanol]
Settings	mass density, [1] [kg/m3]	relative permittivity, [2]
298.15 K	813.09	11.98
308.15 K	804.35	10.78

CC(C)C(C)O (stereo not drawn) [3-methyl-2-butanol] + CCCCOCCCC
[3]
Settings	excess molar enthalpy [kcal/mol]
298.15 K, x2 = 0.0959	0.0882
298.15 K, x2 = 0.1639	0.144
298.15 K, x2 = 0.2508	0.204
298.15 K, x2 = 0.3274	0.241
298.15 K, x2 = 0.3977	0.263
298.15 K, x2 = 0.4693	0.279
298.15 K, x2 = 0.552	0.289
298.15 K, x2 = 0.6335	0.287
298.15 K, x2 = 0.7081	0.273
298.15 K, x2 = 0.7757	0.248
298.15 K, x2 = 0.8645	0.194
298.15 K, x2 = 0.9394	0.106
308.15 K, x2 = 0.0813	0.0648
308.15 K, x2 = 0.155	0.118
308.15 K, x2 = 0.2572	0.181
308.15 K, x2 = 0.3229	0.233
308.15 K, x2 = 0.4119	0.263
308.15 K, x2 = 0.4817	0.281
308.15 K, x2 = 0.5473	0.288
308.15 K, x2 = 0.6348	0.287
308.15 K, x2 = 0.7226	0.269
308.15 K, x2 = 0.8083	0.235
308.15 K, x2 = 0.8908	0.168
308.15 K, x2 = 0.9786	0.0538
